Measured values: patent publication US20150125550A1, “APPLICATION OF 2,9-DI-SEC-BUTYL-1,10-PHENANTHROLINE AS A GLIOBLASTOMA TUMOR CHEMOTHERAPY” (priority 2013, published 2015)

Assays:
A549 lung cancer cells = assay: SRB colorimetric assay, A549 lung cancer cells, 72 hours; type: cell-based, human; settings: for IC50: A549, 72 hours, average ± SD of three curves; for IC50 times lower than cisplatin: A549
Description: A549 cells were cultured in RPMI media supplemented with 10% Fetal Bovine Serum and 1% nonessential amino acids. Sub-culturing was carried out every 3-4 days and was completed by removing the supernatant media and treating the adherent cells with 1.0 mL of a 0.25% (w/v) Trypsin/0.5 mM EDTA solution. The cells were then treated for approximately 3 minutes in a 37° C. incubator under a 5% CO2 atmosphere. Trypsinization was stopped by the addition of 7.0 mL of cell culture media, the suspended cells were collected by centrifugation, and the resulting cell pellet was re-suspended in fresh cell culture media. The cells were then diluted 1:4 by volume and incubated in a 37° C. incubator with 5% CO2. Cells were grown to 80-90% confluency prior to being used in the SRB colorimetric assays.
To test the effects of compounds 1-18 on the growth of A549 lung cancer cells, SRB cytotoxicity assays were done as described by Skehan et al. Cells were maintained in RPMI media as described above, collected, and diluted so that cells could be seeded in 96-well plates at a density of 4,000 cells/well. The 96-well plate was incubated overnight at 37° C. under a 5% CO2 atmosphere. Subsequently, sterifiltered DMSO stock solutions of the drugs were added to the wells in various concentrations (0-25 μM) and the 96-well plate was incubated at 37° C. under a 5% CO2 for an additional 72 hours. The supernatant cell culture medium was then removed and the cells were fixed for 1 hour with 10% cold trichloroacetic acid (100 μL per well). The trichloroacetic acid was discarded and the plates were washed 5 times with de-ionized water and air dried. After being stained with 0.4% SRB ([…]) and incubated at room temperature for 10 minutes, the cells were washed 5 times with 1% acetic acid and air dried. The bound SRB was dissolved in 10 mM unbuffered Tris, pH 10.5 ([…]) for 10 minutes at room temperature, and the absorbance at 492 nm was measured using a microplate reader. The percent cell growth was then calculated based upon the absorbance values relative to control samples not containing any drug. Each drug concentration was done in triplicate to yield a percent growth vs. drug concentration curve, and these growth curves were subsequently repeated two additional times. The growth curves from the three experiments were then plotted in GraphPad Prism and best-fit curves were used to generate the IC50 values for each curve.

GL-26 glioma cells [1] = assay: SRB growth assay, GL-26 glioma cells, 48 hr drug incubation; type: cell-based, murine (C57BL/6); settings: Mus musculus, read-out: GL-26 cell growth inhibition
Description: The murine (C57BL/6) glioma cell line, GL-26, which is highly tumorigenic in the C57BL/6 mice. GL-26 cells were cultured in DMEM/F12 supplemented with 10% FCS, 1% penicillin/streptomycin, 1% L-glutamine and 1% non-essential amino acids. Human foreskin fibroblasts (HFFs) were cultured in DMEM/F12 supplemented with 10% FCS and 1% penicillin/streptomycin. Primary murine astrocytes were purified from C57BL/6 neonate brains and cultured in DMEM/F12 supplemented with 10% FCS, 1% non-essential amino acids, 1% Lglutamine, 50 IU/ml penicillin, […] and 10 mM Hepes buffer.
The sulforhodamine B (SRB) cytotoxicity assays were adapted from Skehan et al. (22). Briefly, either HFF, primary astrocytes or GL-26 cells were plated in 96-well plates at a density of 4,000 cells/well in a volume of 100 µL overnight at 37° C. and 5% CO2. DMSO stock solutions of SBP, MSBP or TMZ were used at a concentration range of 0.1-25 μM for 48 hr before the supernatant was discarded and the cells were fixed for 1 hr with 10% cold trichloroacetic acid (100 μL, per well). Cells used in recovery assay received fresh media for 48 hrs following the 48 hr drug incubation. The plate was then washed 5 times with de-ionized water, air dried, and stained with 0.4% SRB for 10 min (50 μL, per well). After washing 5 times in 1% acetic acid and air-drying, bound SRB was dissolved in 10 mM unbuffered Tris base (pH 10.5; 100 μL, per well). Bound SRB was then read by absorbance at 492 nm on a SpectraMax plate reader (Molecular Devices). The percent survival was then calculated based upon the absorbance values relative to control wells (0 μM SBP in 0.1% DMSO).

[2] = GSH buffer solution; cited from earlier work
[3] = Glutathione stability experiments (UV-visible spectra); type: physicochemical; settings: 5.0×10^−5 M complex, one mole equivalent GSH, phosphate buffer pH 7.4, 15 hours
Description: 5.0×10^−3 M stock solutions of compounds 10-18 were prepared in acetonitrile or DMSO, and subsequently diluted in phosphate buffer (0.10M, pH 7.4) to yield a final gold complex concentration of 5.0×10^−5 M. A stock solution of reduced glutathione in phosphate buffer (0.10M, pH 7.4) was used to add one mole equivalent of GSH to the final gold complex solution, and UV-visible spectra of compounds 10-18 were subsequently collected every hour over a 15 hour period.

GL-26 glioma cells [4] = assay: SRB growth assay, cisplatin/SBP combination; type: cell-based, murine (C57BL/6); settings: 0.8 μM cisplatin alone, 48 hours
Description: The murine (C57BL/6) glioma cell line, GL-26, which is highly tumorigenic in C57BL/6 mice, were used for these in-vitro experiments. GL-26 cells were cultured in DMEM/F12 supplemented with 10% FCS, 1% penicillin/streptomycin, 1% L-glutamine and 1% non-essential amino acids.
Sulforhodamine B (SRB) cytotoxicity assays were utilized to assess antitumor activity. GL-26 cells were plated in 96 well plates at a density of 4,000 cells/well (in a total volume of 100 µL) and incubated for 24 hours in a humidified atmosphere of 5% CO2 at 37° C. GL-26 cells were then exposed to Cisplatin at 0-25 μM with either 0.1 or 0.4 μM SBP for 48 hours. The supernatant was then discarded and the GL-26 cells were fixed with 10% cold trichloroacetic acid for 1 hour (100 μL/well). The cells were washed 5 times with de-ionized water, air dried, and stained with 0.4% SRB for 10 min (50 μL/well). GL-26 cells were then washed 5 times in 1% acetic acid and allowed to air dry. The bound SRB was dissolved in a 10 mM unbuffered Tris base (pH 10.5; 100 μL per well) and quantified by the absorbance at 492 nm using the SpectraMax plate reader (Molecular Devices). The fraction of cell growth was determined based upon the absorbance values in comparison to the control wells (0 μM SBP in 0.5% DMSO). All cell growth assays were done in a minimum of triplicates.

Compound: CCCCc1ccc2ccc3ccc(CCCC)nc3c2n1 [Compound 2, 2,9-di-n-butyl-1,10-phenanthroline]
- IC50 (A549 lung cancer cells; Homo sapiens): 1080 ± 280 nM

Compound: Cc1ccc2ccc3ccc(C)nc3c2n1 [Compound 3, 2,9-di-methyl-1,10-phenanthroline]
- IC50 (A549 lung cancer cells; Homo sapiens): 1350 ± 90 nM

Compound: CCC(C)c1ccc2ccc3c(C)cc(C(C)CC)nc3c2n1 (centres unmarked) [Compound 4, 2,9-di-sec-butyl-4-methyl-1,10-phenanthroline]
- IC50 (A549 lung cancer cells; Homo sapiens): 700 ± 110 nM

Compound: CCC(C)c1ccc2ccc3cccnc3c2n1 (centres unmarked) [Compound 5, 2-sec-butyl-1,10-phenanthroline]
- IC50 (A549 lung cancer cells; Homo sapiens): 620 ± 160 nM
- inhibition at 6 µM (GL-26 glioma cells [1]; GL26, 6 μM): 0.6 ± 1.2%
- inhibition at 25 µM (GL-26 glioma cells [1]; GL26, 25 μM): 24.7 ± 5%

Compound: CCCCc1ccc2ccc3cccnc3c2n1 [Compound 6, 2-mono-n-butyl-phenanthroline]
- IC50 (A549 lung cancer cells; Homo sapiens): 2920 ± 470 nM

Compound: c1ccc(-c2ccc3ccc4ccc(-c5ccccc5)nc4c3n2)cc1 [Compound 7, 2,9-di-phenyl-1,10-phenanthroline]
- IC50 (A549 lung cancer cells; Homo sapiens): 1870 ± 210 nM

Compound: Cc1cc(-c2ccccc2)nc2c1ccc1ccc(-c3ccccc3)nc12 [Compound 8, 2,9-di-phenyl-4-methtyl-1,10-phenanthroline]
- IC50 (A549 lung cancer cells): 1350 ± 110 nM

Compound: CCC(C)c1ccc2ccc3ccc(C(C)CC)nc3c2n1.[Cl][Au]([Cl])[Cl] (centres unmarked) [Compound 10, (2,9-di-sec-butyl-1,10-phenanthroline)AuCl3]
- IC50 (A549 lung cancer cells): 580 ± 150 nM
- stability in the presence of GSH (previous studies) [2]: quite stable in the presence of a GSH buffer solution

Compound: CCCCc1ccc2ccc3ccc(CCCC)nc3c2n1.[Cl][Au]([Cl])[Cl] [Compound 11, (2,9-di-n-butyl-1,10-phenanthroline)AuCl3]
- IC50 times lower than cisplatin (A549 lung cancer cells): approximately 12 times
- IC50 (A549 lung cancer cells): 340 ± 60 nM
- times more active than the free ligand (A549 lung cancer cells; A549 IC50 ratio): approximately 3 times

Compound: Cc1ccc2ccc3ccc(C)nc3c2n1.[Cl][Au]([Cl])[Cl] [Compound 12, (2,9-di-methyl-1,10-phenanthroline)AuCl3]
- IC50 (A549 lung cancer cells): 1470 ± 210 nM

Compound: CCC(C)c1ccc2ccc3c(C)cc(C(C)CC)nc3c2n1.[Cl][Au]([Cl])[Cl] (centres unmarked) [Compound 13, (2,9-di-sec-butyl-4-methyl-1,10-phenanthroline)AuCl3]
- IC50 (A549 lung cancer cells): 4020 ± 320 nM
- times less active than the corresponding free ligand (A549 lung cancer cells; A549 IC50 ratio): approximately 6 times

Compound: CCC(C)c1ccc2ccc3cccnc3c2n1.[Cl][Au]([Cl])[Cl] (centres unmarked) [Compound 14, (2-sec-butyl-1,10-phenanthroline)AuCl3]
- IC50 (A549 lung cancer cells): 770 ± 70 nM

Compound: CCCCc1ccc2ccc3cccnc3c2n1.[Cl][Au]([Cl])[Cl] [Compound 15, (2-mono-n-butyl-phenanthroline)AuCl3]
- IC50 times lower than cisplatin (A549 lung cancer cells): approximately 12 times
- IC50 (A549 lung cancer cells): 370 ± 90 nM
- times more active than the free ligand (A549 lung cancer cells; A549 IC50 ratio): ~8 times
- redox stability in the presence of GSH [3]: no reduction to gold(I) or gold(0) occurred

Compound: [Cl][Au]([Cl])[Cl].c1ccc(-c2ccc3ccc4ccc(-c5ccccc5)nc4c3n2)cc1 [Compound 16, (2,9-di-phenyl-1,10-phenanthroline)AuCl3]
- IC50 (A549 lung cancer cells): 1650 ± 130 nM

Compound: Cc1cc(-c2ccccc2)nc2c1ccc1ccc(-c3ccccc3)nc12.[Cl][Au]([Cl])[Cl] [Compound 17, (2,9-di-phenyl-4-methtyl-1,10-phenanthroline)AuCl3]
- IC50 (A549 lung cancer cells): 1370 ± 110 nM

Compound: Cc1c(C)c2cccnc2c2ncccc12.[Cl][Au+][Cl] [[(^5,6-di-methylphen)AuCl2]^+, reference compound]
- stability in the presence of GSH (previous studies) [2]: underwent immediate reduction to gold(0) in the presence of GSH

Compound: N.N.[Cl][Pt][Cl] [cisplatin, [Pt(NH3)2Cl2], reference compound]
- IC50 (A549 lung cancer cells): 4670 ± 210 nM
- cell growth compared to untreated tumor cells (GL-26 glioma cells [4]): approximately 78%

Compound: (2-mono-sec-butyl-2,2′-bipyridine)AuCl3 [Compound 18]
- Cell Growth @ 12 μM (A549 lung cancer cells; A549, 12 μM): 100% Cell Growth @ 12 μM
- reduction of A549 tumor cell growth (A549 lung cancer cells; concentrations used for compounds 1-8 and 10-17): did not reduce tumor cell growth at any of the concentrations
